Data on 94 molecules can be found in PubChem BioAssay AID1159557 (GlaxoSmithKline (GSK), 2015).

Active and inactive are the calls of the source. How the calls were made is not given here.

In this experiment the test system is Trypanosoma brucei growth inhibition. The experiment is described as follows: T. brucei growth inhibition (AID 1159557).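 Further: parasites exposed to compound for 48 h before the resazurin readout.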
In the case of `COc1ncc(-c2ccc3ncnc(N4CCOCC4)c3c2)cc1NS(C)(=O)=O`, the IC50 is 320 nM.

As to `CCNc1cc(-c2ccccn2)nc(Nc2ccc(OC)cc2)n1`, the IC50 was 13000 nM.

Consider `CS(=O)(=O)c1ccccc1C(=O)N(Cc1ccccc1)c1ccccc1`, for which the IC50 was 400 nM.

Regarding `Cc1cc(C)n(-c2nc(NC(C)C)nc(NC(C)(C)C)n2)n1`, the IC50 was 20000 nM.

Turning to `CS(=O)(=O)c1ccc(CC(=O)Nc2nc(-c3ccc(Cl)s3)cs2)cc1`, the 50% inhibitory concentration (IC50) was 10000 nM.

Turning to `CC(=O)Nc1ccc(CN2CCC(N3CC(c4ccccc4)(c4ccccc4)OCC3=O)CC2)cc1`, the half-maximal inhibitory concentration (IC50) was 320 nM.

Take `COc1cnc2ccc(=O)n(CCN3CCC(NC(=O)c4ccc(Cl)cc4)CC3)c2c1`: the IC50 is 79 nM.

As to `CCOC(=O)c1cn[nH]c1S(=O)(=O)N1CCC1c1ccccc1` (centres undefined), the IC50 was 630 nM.

Turning to `CN(Cc1ccc(C(N)=O)cc1)C(c1ccc(F)cc1)c1cccnc1` (centres undefined), the IC50 was > 40000 nM (inactive).

As for `COc1ccc(NC(=O)c2ccc(NC(=O)CN(c3ccccc3C)S(C)(=O)=O)cc2)cc1`, the half-inhibitory concentration (IC50) was 200 nM.

On to `CC(=O)NC1(c2ccccc2)CCN(CC(=O)Nc2ccccc2-c2ccccc2)CC1`, for which the IC50 was 630 nM.

In the case of `COc1ccc(S(=O)(=O)NCc2ccc(-c3ccc(CN(C)CCO)cc3)cc2)cc1`, the IC50 is 3200 nM.

In the case of `Cc1cc(C)nc(N2CCC(N(Cc3cccnc3)C(=O)c3cccc(C#N)c3)CC2)n1`, the IC50 was > 40000 nM (inactive).

As to `CC(=O)Nc1ccc(-c2noc(CC3CCCN(Cc4cccc(F)c4C)C3)n2)cc1` (centres undefined), the IC50 was 20000 nM.

`O=C(NCCc1ccccc1Cl)c1cccn1-c1cccnc1`: the 50% inhibitory concentration (IC50) was 32000 nM.

`O=[N+]([O-])c1ccc(-c2nnn(-c3ccc(Cl)cc3)n2)o1`: the IC50 was 320 nM.

Regarding `COc1ccc2nc(N(Cc3cccnc3)C(=O)C3CCC3)sc2c1`, the half-inhibitory concentration (IC50) is 20000 nM.

On to `O=C(NCc1nnc2n1CCCCC2)c1ccc(-c2ccc(F)cc2)o1`, for which the IC50 is 130 nM.

For the molecule `CN(Cc1nnnn1C1CCN(Cc2ccc(-n3ccnc3)cc2)CC1)c1ccc(F)cc1F`, the IC50 is > 40000 nM (inactive).

Turning to `Cc1c(CNC(=O)c2ccc(Cn3cc(Cl)c([N+](=O)[O-])n3)cc2)cnn1C`, the IC50 was 5000 nM.

With `Cc1sc(C)c(C(F)(F)F)c1CNCCCNc1cc(=O)c2ccccc2[nH]1`, the IC50 was 10 nM.

Consider `COc1cccc(-c2cc(C(F)(F)F)nc(-n3ccc([N+](=O)[O-])n3)n2)c1`, for which the concentration for half-maximal inhibition (IC50) is 32000 nM.

On to `Cc1cc(C)cc(NS(=O)(=O)c2cc(-c3cc(C)[nH]n3)ccc2C)c1`, for which the concentration for half-maximal inhibition (IC50) is 1000 nM.

On to `Cc1ccc(S(=O)(=O)Nc2ccc(CN3CCN(C(=O)c4cccc(C)c4)CC3)cc2)cc1`, for which the IC50 was 250 nM.

Regarding `c1ccc2c(CCOc3nccnc3-c3ccncc3)c[nH]c2c1`, the IC50 was 32000 nM.

Turning to `Cc1[nH]nc2c1C(c1ccc(OCc3ccccc3F)cc1)SCC(=O)N2` (centres undefined), the IC50 is 25000 nM.

Take `O=c1[nH]cnc2c([C@@H]3O[C@H](CO)[C@@H](O)[C@H]3O)[nH]nc12`: the IC50 is 3.2 nM.

Turning to `NS(=O)(=O)c1ccc(CNC(=O)c2ccc([N+](=O)[O-])s2)cc1`, the IC50 is 250 nM.

Consider `Cc1ccc2c(c1)SC(C(=O)Nc1n[nH]c(-c3ccccn3)n1)C2` (centres undefined), for which the IC50 was 4000 nM.

As for `Nc1ncnc2c1ncn2[C@@H]1O[C@H](CO)C[C@H]1O`, the IC50 was 13 nM.

As for `CC(C)CC(=O)NC(c1cccs1)c1ccc2cccnc2c1O` (centres undefined), the concentration for half-maximal inhibition (IC50) was 630 nM.

For `C=CCn1nc([N+](=O)[O-])nc1Oc1ccc(Cl)cc1Cl`, the half-maximal inhibitory concentration (IC50) was 20000 nM.

In the case of `COc1ccc(S(=O)(=O)NC(C)C)cc1Nc1ncc(-c2cccc(F)c2)cn1`, the IC50 is 20000 nM.

`N#Cc1cccc(CNc2ccc(-c3cnn(CC4CC4)c(=O)c3C#N)cc2)c1`: the IC50 is 10000 nM.

For the molecule `Nc1nonc1-c1nc2cncc(C(=O)N3CC[C@H](N)C3)c2n1CC1CC1`, the IC50 was 630 nM.

For the molecule `COc1ccc2ncc(=O)n(CCN3CC[C@H](NCc4ncc(Cl)c5[nH]ncc45)[C@H](O)C3)c2n1`, the half-maximal inhibitory concentration (IC50) is 320 nM.

For the molecule `CN(C)Cc1ccc(-c2ccc(S(=O)(=O)NCC3CCCO3)c(F)c2)cc1` (centres undefined), the half-inhibitory concentration (IC50) is 25000 nM.

For the molecule `COc1ccc(Nc2nccc(N(C)c3n[nH]c4c(F)cccc34)n2)cc1S(C)(=O)=O`, the half-inhibitory concentration (IC50) was 6300 nM.

For the molecule `CCOc1ccc(NC(=O)c2ccc(NC(=O)NC3CCCCC3)cc2)cc1`, the IC50 was 200 nM.

Take `COc1ccc(C2CC(c3ccccc3Cl)=NN2C(=O)CNC(=O)C2CCC2)cc1` (centres undefined): the IC50 is 320 nM.

Take `Cc1ccc2ccc(C(Nc3ccccn3)c3cccnc3)c(O)c2n1` (centres undefined): the IC50 was 5000 nM.

On to `CC(=O)Nc1ccc(Nc2nccc(-c3cnn4ncccc34)n2)cc1C(F)(F)F`, for which the IC50 was 32 nM.

Regarding `CN(C)c1ccc(-c2cc3nccnc3c(OC[C@H]3CCCNC3)n2)cn1`, the IC50 is 2000 nM.

`CC(C)(C)C(Cn1ccnc1)NC(=O)c1ccc2nc(C3CC3)oc2c1` (centres undefined): the IC50 is > 40000 nM (inactive).

In the case of `Cc1nc(N2CCC(C(=O)N3CCC(O)(c4cccnc4)CC3)CC2)nc2ccc(C(C)C)cc12`, the IC50 is 20000 nM.

Turning to `COc1ccc2ncc(=O)n(CCN3CCOC(CNCc4ccc(C(F)(F)F)cc4F)C3)c2n1` (centres undefined), the half-maximal inhibitory concentration (IC50) was 630 nM.

With `Cc1occc1C(=O)Nc1ccccc1C(=O)Nc1nccs1`, the 50% inhibitory concentration (IC50) was 400 nM.

In the case of `O=C(NC(c1ccc(Cl)cc1)c1cnccn1)C1CCN(C(=O)Nc2cccc(C(F)(F)F)c2)CC1` (centres undefined), the IC50 was 13000 nM.

Turning to `CN1C(=O)c2ccccc2Sc2ccc(NC(=O)NCc3ccco3)cc21`, the half-maximal inhibitory concentration (IC50) was 400 nM.

On to `O=C(NC1C(=O)N(c2ccccc2)C1c1cccnc1)c1ccc(Cl)s1` (centres undefined), for which the IC50 is > 40000 nM (inactive).

With `CC(C)(C)C(O)(CCc1ccc(Cl)cc1)Cn1cncn1` (centres undefined), the IC50 was > 40000 nM (inactive).

`COc1ccc(C)cc1-c1csc(NC(=O)C(C)n2ccnc2)n1` (centres undefined): the IC50 is 25000 nM.

Consider `COc1ccc(Nc2nc(-c3ccccn3)cc(N3CCCC(O)C3)n2)cc1` (centres undefined), for which the IC50 is 4000 nM.

As for `Cc1cc(NC(=O)C2CCCCC2)n(-c2nc3c(c(=O)[nH]2)CCC3)n1`, the IC50 was 130 nM.

As for `O=C(Nc1nc2cc(Cl)ccc2o1)c1cccc(Cl)c1`, the 50% inhibitory concentration (IC50) was 790 nM.

Take `Cc1cccnc1NC(=O)c1cccc(OCc2c(C)noc2C)c1`: the IC50 is 400 nM.

Take `CCN(Cc1cccs1)C(=O)CSc1nnc(-c2ccc3c(c2)OCO3)o1`: the IC50 is 25000 nM.

With `CCN(Cc1ccncc1)Cc1ccc(NC(=O)c2cc(-c3ccc(F)cc3)n[nH]2)cc1`, the IC50 was > 40000 nM (inactive).

On to `Nc1nccc(-c2csc(Nc3ccc(Cl)cc3)n2)n1`, for which the IC50 is > 40000 nM (inactive).

`Oc1c(-c2n[nH]c(CCc3ccccc3)n2)ncc2cccnc12`: the half-maximal inhibitory concentration (IC50) is 790 nM.

For the molecule `COc1ccc(C2CC(c3ccccc3Cl)=NN2C(=O)CNC(=O)C2CCCC2)cc1` (centres undefined), the half-maximal inhibitory concentration (IC50) was 630 nM.

In the case of `C=CCOCC1Cn2nc([N+](=O)[O-])nc2O1` (centres undefined), the IC50 is > 40000 nM (inactive).

`COc1cc(OC)cc(C(=O)N[C@@H](CC(C)C)C(=O)NC2(C#N)CC2)c1`: the IC50 is 500 nM.

Consider `COc1ccc(S(=O)(=O)Nc2ccc(C(=O)Nc3nc(-c4ccccn4)cs3)cc2)cc1`, for which the half-inhibitory concentration (IC50) is 790 nM.

As for `CC1(Oc2cncc(Cl)c2)CCN(Cc2cc3ccccc3[nH]2)C1` (centres undefined), the IC50 is > 40000 nM (inactive).

As for `COc1ccc(CN2C(=O)C(O)(CC(=O)c3ccncc3)c3cc(Br)ccc32)cc1OC` (centres undefined), the half-inhibitory concentration (IC50) is 630 nM.

Consider `CC1=C(C(=O)Nc2ccc(Cl)cc2)C(c2ccncc2)n2ncc(C(=O)Nc3ccccc3)c2N1` (centres undefined), for which the IC50 is 3200 nM.

Take `Cc1[nH]n2c(=O)c3c(nc2c1-c1ccc(F)cc1)CCCC3`: the IC50 was 400 nM.

For the molecule `CCOC(=O)c1noc(N)c1-c1ccccc1`, the IC50 is 630 nM.

As for `C[C@@H](Oc1cc(-n2cnc3ccc(CC(O)CO)cc32)sc1C(N)=O)c1ccccc1Cl` (some centres undefined), the IC50 was 630 nM.

As for `O=C(c1cccc(Nc2ncc(-c3ccc4c(c3)OCO4)cn2)c1)N1CCSC1`, the half-maximal inhibitory concentration (IC50) was 13000 nM.

Take `C[C@@H](Oc1cc(-n2cnc3ccc(C(O)CO)cc32)sc1C(N)=O)c1ccccc1C(F)(F)F` (some centres undefined): the IC50 was 400 nM.

Take `c1ccc(-c2nc(NC3CCCC3)c3ccccc3n2)nc1`: the concentration for half-maximal inhibition (IC50) is 6300 nM.

As to `COc1ccc2ncc(=O)n(CCN3CCC(NCc4ccc(-c5cccs5)cc4)CC3)c2n1`, the IC50 is 3200 nM.

With `NC(=O)c1cc(F)ccc1Nc1nc(NC2CCC(O)CC2)ncc1Cl` (centres undefined), the 50% inhibitory concentration (IC50) was 160 nM.

On to `O=S1N=C(NCCCN(Cc2ccc(F)cc2)c2ccccn2)C(NCc2ccncc2)=N1` (centres undefined), for which the concentration for half-maximal inhibition (IC50) is 320 nM.

With `Cc1ccc(Nc2nc(-c3ccccn3)cc(N3CCCC(O)C3)n2)cc1` (centres undefined), the IC50 is 3200 nM.

Consider `COc1ccc(S(=O)(=O)Nc2ccccc2OC)cc1NC(=O)CCCc1c[nH]c2ccccc12`, for which the half-maximal inhibitory concentration (IC50) was 13000 nM.

In the case of `COc1cc(-c2noc(CC#N)n2)ccc1OC(F)F`, the half-maximal inhibitory concentration (IC50) is 630 nM.

For the molecule `C[C@@H](Oc1cc(-n2cnc3cc(N)ccc32)sc1C(N)=O)c1ccccc1Cl`, the concentration for half-maximal inhibition (IC50) was 250 nM.

For `N#Cc1cnc(Nc2cccc(CCN3CCOCC3)c2)nc1Nc1ccccc1C(N)=O`, the concentration for half-maximal inhibition (IC50) was 63 nM.

`Cc1nn(-c2nc(N)nc(-c3ccccn3)n2)c(C)c1Cc1ccccc1`: the IC50 was > 40000 nM (inactive).

Take `O=C(NNC(=O)c1ccccn1)c1ccc(-c2ccccc2)cc1`: the half-inhibitory concentration (IC50) was 320 nM.

As to `CCS(=O)(=O)c1cccc(C(=O)Nc2nc(-c3ccccn3)cs2)c1`, the half-maximal inhibitory concentration (IC50) is 500 nM.

For the molecule `N#Cc1ccc(S(=O)(=O)N2CCN(Cc3cccc(-c4ccncc4)c3)CC2)cc1`, the IC50 was > 40000 nM (inactive).

With `O=C(Nc1nc(-c2ccccn2)cs1)C1CCc2ccccc2C1` (centres undefined), the half-maximal inhibitory concentration (IC50) was 3200 nM.

Take `CN1CCN(c2nc(-c3ccc(Cl)cc3)c3c(N)n(C)nc3n2)CC1`: the IC50 is 13000 nM.

For `COc1ccc([N+](=O)[O-])cc1NC(=O)c1cc(Cl)ccc1O`, the IC50 is 25000 nM.

Regarding `COc1ccc2ncc(F)c(NC(=O)C3(O)CCC(NCc4ccc5c(c4)OCCO5)CC3)c2n1` (centres undefined), the 50% inhibitory concentration (IC50) was 790 nM.

`Cn1ccnc1-c1nc(NCc2ccccc2Cl)cc(C2CC2)n1`: the IC50 is 2000 nM.

As for `CCCC(=O)N(Cc1ccccn1)c1nc2ccccc2s1`, the IC50 was 20000 nM.

For `Cc1nc(-c2ccncc2)ncc1C(C)NC(=O)c1ccc(Cl)s1` (centres undefined), the IC50 was 1000 nM.

For the molecule `Cc1[nH]nc(Nc2ccnc3[nH]ccc23)c1C`, the IC50 is 130 nM.

Regarding `O=C1OCc2ccc(Nc3nccc(-c4cnn5ncccc45)n3)cc21`, the half-maximal inhibitory concentration (IC50) was 4 nM.
